From patent publication US9040547B2, “Pyrrolopyrimidine and purine derivatives” (PFIZER INC., priority 2011, dated 2015)

Experiments:
Format in all cases: cell-based
EGFR L858R+T790M = EGFR L858R+T790M (Homo sapiens, UniProt P00533, L858R/T790M); experiment: pEGFR Y1068 ELISA assay, NIH3T3/EGFR_L858R+T790M cells; conditions: 3T3 cell line, 2 hrs compound treatment; read-out: pEGFRY1068 ELISA3T3T790M—L858R IC50;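 also: sandwich ELISA of EGFR phosphorylated at Tyr1068 in lysates of stably transfected NIH/3T3 cells, 11-point threefold dilution series run in duplicate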
EGFR L858R = EGFR L858R (Homo sapiens, UniProt P00533, L858R); experiment: pEGFR Y1068 ELISA assay, NIH3T3/EGFR_L858R cells; conditions: 3T3 cell line, 2 hrs compound treatment; read-out: pEGFRY1068 ELISA3T3 L858R IC50;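 also: sandwich ELISA of phospho-EGFR Tyr1068 in lysates of stably transfected NIH/3T3 pools after 2 h compound exposure at 37 °C, 11-point threefold dilution series run in duplicate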
EGFR L858R, sequence (P00533 25-1210 L858R): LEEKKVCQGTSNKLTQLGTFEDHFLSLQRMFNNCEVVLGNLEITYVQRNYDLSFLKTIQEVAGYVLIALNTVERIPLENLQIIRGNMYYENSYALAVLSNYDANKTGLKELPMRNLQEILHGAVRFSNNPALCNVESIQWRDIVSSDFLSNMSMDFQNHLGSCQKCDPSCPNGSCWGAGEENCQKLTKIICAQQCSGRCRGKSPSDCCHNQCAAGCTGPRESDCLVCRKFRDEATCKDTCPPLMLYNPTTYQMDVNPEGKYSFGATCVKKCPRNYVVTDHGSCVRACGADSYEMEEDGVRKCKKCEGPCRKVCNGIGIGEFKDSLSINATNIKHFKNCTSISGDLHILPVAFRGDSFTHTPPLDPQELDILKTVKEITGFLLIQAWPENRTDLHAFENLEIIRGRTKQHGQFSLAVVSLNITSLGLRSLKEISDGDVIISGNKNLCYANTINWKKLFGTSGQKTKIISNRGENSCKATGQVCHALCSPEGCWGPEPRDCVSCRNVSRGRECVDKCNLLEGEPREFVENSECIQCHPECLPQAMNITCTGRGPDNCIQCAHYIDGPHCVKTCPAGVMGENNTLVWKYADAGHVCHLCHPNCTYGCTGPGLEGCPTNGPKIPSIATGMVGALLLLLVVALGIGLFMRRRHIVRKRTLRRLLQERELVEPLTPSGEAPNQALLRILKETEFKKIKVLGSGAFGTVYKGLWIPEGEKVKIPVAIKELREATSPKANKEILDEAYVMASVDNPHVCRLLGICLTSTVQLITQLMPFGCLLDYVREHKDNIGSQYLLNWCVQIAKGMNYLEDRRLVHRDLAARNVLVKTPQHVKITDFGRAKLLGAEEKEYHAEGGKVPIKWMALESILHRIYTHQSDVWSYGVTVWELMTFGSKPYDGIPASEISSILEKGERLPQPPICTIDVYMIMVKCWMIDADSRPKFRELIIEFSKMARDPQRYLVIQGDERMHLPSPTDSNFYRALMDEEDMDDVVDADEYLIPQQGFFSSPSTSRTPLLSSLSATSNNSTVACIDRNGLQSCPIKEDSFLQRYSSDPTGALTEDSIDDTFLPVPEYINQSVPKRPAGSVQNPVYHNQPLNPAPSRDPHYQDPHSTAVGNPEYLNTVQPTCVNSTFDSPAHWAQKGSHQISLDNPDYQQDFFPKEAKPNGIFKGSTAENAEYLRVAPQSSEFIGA

[1] = target: T1, EGFR wildtype, endogenous (Homo sapiens, UniProt P00533); experiment: pEGFR Y1068 ELISA assay, A549 cells; conditions: full serum media, stimulated 10 min with EGF (40 ng/mL), read-out: pEGFRY1068 ELISAA549 IC50;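 also: sandwich ELISA of phospho-EGFR Tyr1068 in cell lysates, cells exposed to compound for 2 h before EGF stimulation, 11-point threefold dilution series run in duplicate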
T1 construct: A549 (EGFR wildtype, endogenous); host or cells: A549
T1 sequence (P00533 25-1210): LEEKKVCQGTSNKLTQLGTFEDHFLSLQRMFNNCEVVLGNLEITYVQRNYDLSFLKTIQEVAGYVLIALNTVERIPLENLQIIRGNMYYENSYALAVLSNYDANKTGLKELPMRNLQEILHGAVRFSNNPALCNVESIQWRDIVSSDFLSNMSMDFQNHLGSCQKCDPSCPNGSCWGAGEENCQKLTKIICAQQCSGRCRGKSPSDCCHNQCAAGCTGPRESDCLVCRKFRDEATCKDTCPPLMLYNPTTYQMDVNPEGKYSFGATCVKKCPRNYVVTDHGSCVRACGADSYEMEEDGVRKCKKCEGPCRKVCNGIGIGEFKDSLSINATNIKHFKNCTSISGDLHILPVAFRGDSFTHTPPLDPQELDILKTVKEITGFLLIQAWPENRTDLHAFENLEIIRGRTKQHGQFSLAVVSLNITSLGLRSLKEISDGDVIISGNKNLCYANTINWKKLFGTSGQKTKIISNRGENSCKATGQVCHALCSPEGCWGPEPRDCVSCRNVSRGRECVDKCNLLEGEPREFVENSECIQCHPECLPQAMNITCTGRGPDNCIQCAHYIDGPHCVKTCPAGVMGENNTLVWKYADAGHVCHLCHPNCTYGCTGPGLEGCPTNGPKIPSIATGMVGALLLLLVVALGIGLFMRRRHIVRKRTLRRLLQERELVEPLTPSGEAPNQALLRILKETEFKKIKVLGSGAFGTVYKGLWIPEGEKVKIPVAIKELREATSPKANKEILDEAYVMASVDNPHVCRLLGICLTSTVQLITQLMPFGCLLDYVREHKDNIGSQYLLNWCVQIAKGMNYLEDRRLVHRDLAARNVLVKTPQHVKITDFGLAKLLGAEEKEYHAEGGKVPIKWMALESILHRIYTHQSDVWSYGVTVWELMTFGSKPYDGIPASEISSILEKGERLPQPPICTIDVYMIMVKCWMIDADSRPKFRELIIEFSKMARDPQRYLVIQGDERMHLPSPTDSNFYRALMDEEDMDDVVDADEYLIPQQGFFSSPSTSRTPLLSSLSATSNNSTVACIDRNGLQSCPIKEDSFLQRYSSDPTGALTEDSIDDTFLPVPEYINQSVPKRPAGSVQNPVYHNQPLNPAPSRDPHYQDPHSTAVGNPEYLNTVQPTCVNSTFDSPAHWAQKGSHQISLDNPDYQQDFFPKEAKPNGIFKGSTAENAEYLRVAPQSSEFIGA

EGFR E746-A750 deletion = EGFR E746-A750 deletion (Homo sapiens, UniProt P00533, DEL746-750); experiment: pEGFR Y1068 ELISA assay, NIH3T3/EGFR_E746-A750 deletion cells; conditions: 3T3 Del cells, 2 hrs compound treatment; read-out: ELISA7E 3T3 Del IC50;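 also: sandwich ELISA on cell lysates detecting phospho-EGFR at Tyr1068, compounds run as 11-point threefold dilution series in duplicate, IC50 from inhibition of this phosphorylation signal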
EGFR E746-A750 deletion, sequence (P00533 with tags, fused parts or gaps DEL746-750): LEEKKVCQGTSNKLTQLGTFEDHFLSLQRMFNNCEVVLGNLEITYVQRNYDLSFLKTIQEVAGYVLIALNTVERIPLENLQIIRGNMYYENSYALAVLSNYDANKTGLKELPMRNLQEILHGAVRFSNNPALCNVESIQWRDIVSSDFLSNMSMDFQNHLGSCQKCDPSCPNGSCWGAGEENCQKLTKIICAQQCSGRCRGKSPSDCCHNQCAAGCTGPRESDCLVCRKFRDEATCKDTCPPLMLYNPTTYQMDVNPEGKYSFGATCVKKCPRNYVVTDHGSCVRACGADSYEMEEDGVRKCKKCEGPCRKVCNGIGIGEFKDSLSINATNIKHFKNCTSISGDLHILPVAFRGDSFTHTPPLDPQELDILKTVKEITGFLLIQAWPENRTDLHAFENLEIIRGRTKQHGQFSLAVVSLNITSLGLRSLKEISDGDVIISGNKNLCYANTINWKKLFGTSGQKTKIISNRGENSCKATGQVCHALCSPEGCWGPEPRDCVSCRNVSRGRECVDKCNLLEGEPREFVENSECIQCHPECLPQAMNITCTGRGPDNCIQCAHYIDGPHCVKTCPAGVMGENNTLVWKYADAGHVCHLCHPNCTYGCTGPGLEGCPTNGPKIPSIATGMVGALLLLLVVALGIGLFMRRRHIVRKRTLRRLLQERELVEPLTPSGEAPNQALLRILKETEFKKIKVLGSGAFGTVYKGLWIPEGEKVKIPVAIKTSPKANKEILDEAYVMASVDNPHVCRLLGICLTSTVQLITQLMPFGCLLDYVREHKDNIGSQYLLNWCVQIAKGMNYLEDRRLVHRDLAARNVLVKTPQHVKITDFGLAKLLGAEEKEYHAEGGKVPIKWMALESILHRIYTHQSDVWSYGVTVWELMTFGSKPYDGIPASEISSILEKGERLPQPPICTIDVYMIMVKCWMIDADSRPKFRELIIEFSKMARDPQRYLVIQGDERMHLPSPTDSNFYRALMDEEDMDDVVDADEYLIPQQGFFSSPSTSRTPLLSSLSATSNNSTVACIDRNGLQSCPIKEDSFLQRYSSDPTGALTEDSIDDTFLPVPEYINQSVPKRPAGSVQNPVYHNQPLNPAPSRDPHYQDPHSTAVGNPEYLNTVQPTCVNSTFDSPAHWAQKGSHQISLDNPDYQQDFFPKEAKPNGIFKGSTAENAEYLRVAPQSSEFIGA

EGFR Del (PC9) = target: T2, EGFR Del (PC9) (Homo sapiens, UniProt P00533, DEL746-750); experiment: EGFR ELISA, PC9 Del cells; conditions: read-out: EGFR_ELISA9E PC9 Del IC50;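 also: cellular EGFR autophosphorylation at Tyr1068 quantified by sandwich ELISA of cell lysates after 2 h compound exposure at 37 °C, 11-point threefold dilution series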
T2 construct: endogenous in cells; host or cells: PC-9
T2 sequence (P00533 with tags, fused parts or gaps DEL746-750): as above

| IC50 (EGFR L858R+T790M) [nM] | IC50 (EGFR L858R) [nM] | IC50 [1] [nM] | IC50 (EGFR E746-A750 deletion) [nM] | IC50 (EGFR Del (PC9)) [nM] | SMILES |
| --- | --- | --- | --- | --- | --- |
| 57 | 733 | 9060 | – | – | C=CC(=O)N1C[C@@H](COc2nc(Nc3cnn(C)c3)nc3[nH]ccc23)[C@H](C)C1 (single isomer, unassigned) [Example 3] |
| 77 | 547 | > 10000 | – | – | C=CC(=O)N1C[C@H](COc2nc(Nc3cnn(C)c3)nc3[nH]ccc23)[C@@H](C)C1 (single isomer, unassigned) [Example 4] |
| 182 | 834 | > 10000 | – | – | C=CC(=O)N1C[C@@H](CC)[C@H](COc2nc(Nc3cnn(C)c3)nc3[nH]ccc23)C1 (single isomer, unassigned) [Example 15] |
| – | – | – | > 10000 | – | C=CC(=O)N[C@H]1C[C@@H](Oc2nc(Nc3cnn(C)c3)nc3[nH]cnc23)C1 (single isomer, unassigned) [Example 55] |
| – | – | – | > 10000 | – | C=CC(=O)N[C@H]1C[C@H](Oc2nc(Nc3cnn(C)c3)nc3[nH]cnc23)C1 (single isomer, unassigned) [Example 56] |
| 33 | 585 | > 10000 | – | – | C=CC(=O)Nc1cccc(Oc2nc(Nc3ccn(C)n3)nc3[nH]cc(F)c23)c1 [Example 1, N-[3-({5-fluoro-2-[(1-methyl-1H-pyrazol-3-yl)amino]-7H-pyrrolo[2,3-d]pyrimidin-4-yl}oxy)phenyl]prop-2-enamide] |
| > 10000 | > 10000 | > 10000 | – | – | C=CC(=O)N[C@H]1C[C@H](Nc2nc(Nc3cnn(C)c3)nc3[nH]ccc23)C1 [Example 6, N-[trans-3-({2-[(1-methyl-1H-pyrazol-4-yl)amino]-7H-pyrrolo[2,3-d]pyrimidin-4-yl}amino)cyclobutyl]prop-2-enamide] |
| 396 | 1120 | > 10000 | 1130 | – | C=CC(=O)Nc1cccc(Oc2nc(Nc3cnn(C4CCN(C)C4)c3)nc3[nH]cnc23)c1 (centres unmarked) [Example 7, N-{3-[(2-{[1-(1-methylpyrrolidin-3-yl)-1H-pyrazol-4-yl]amino}-9H-purin-6-yl)oxy]phenyl}prop-2-enamide] |
| 17 | 25 | 1370 | 8 | 3 | C=CC(=O)Nc1cccc(Oc2nc(Nc3cnn(C)c3)nc3[nH]cc(-c4cccnc4)c23)c1 [Example 8, N-[3-({2-[(1-methyl-1H-pyrazol-4-yl)amino]-5-(pyridin-3-yl)-7H-pyrrolo[2,3-d]pyrimidin-4-yl}oxy)phenyl]prop-2-enamide] |
| 1800 | > 10000 | > 10000 | – | – | C=CC(=O)N[C@H]1C[C@H](Oc2nc(Nc3cnn(C)c3)nc3[nH]cc(C#N)c23)C1 [Example 14] |
| 308 | 2510 | > 10000 | – | – | C=CC(=O)N1CC(COc2nc(Nc3cnn(C)c3)nc3[nH]ccc23)C1 [Example 16] |
| 104 | 2030 | > 10000 | – | – | C=CC(=O)N1CCO[C@@H](COc2nc(Nc3cnn(C)c3)nc3[nH]ccc23)C1 [Example 17] |
| 79 | 1500 | > 10000 | – | – | C=CC(=O)N1CCO[C@H](COc2nc(Nc3cnn(C)c3)nc3[nH]ccc23)C1 [Example 18] |
| 1820 | > 10000 | > 10000 | 8400 | – | C=CC(=O)N1CC[C@@H](Oc2nc(Nc3cnn(C)c3)nc3[nH]cc(C#N)c23)C1 [Example 20] |
| 20 | 275 | 6740 | – | – | C=CC(=O)Nc1cccc(Oc2nc(Nc3cnn(C)c3C)nc3[nH]ccc23)c1 [Example 24] |
| 69 | 1030 | > 10000 | – | – | C=CC(=O)Nc1cccc(Oc2nc(Nc3cnn(CC(C)(C)O)c3)nc3[nH]ccc23)c1 [Example 25] |
| 21 | 177 | 6760 | 135 | – | C=CC(=O)Nc1cccc(Oc2nc(Nc3cc(C)nn3C)nc3[nH]ccc23)c1 [Example 26] |
| – | – | – | 116 | – | C=CC(=O)N1CCc2c(Oc3nc(Nc4ccn(C)n4)nc4[nH]ccc34)cccc21 [Example 29] |
| 9 | 91 | 2390 | 25 | – | C=CC(=O)Nc1cccc(Oc2nc(Nc3cn(C)nc3C)nc3[nH]ccc23)c1 [Example 30] |
| 20 | 120 | 2210 | 27 | – | C=CC(=O)Nc1cccc(Oc2nc(Nc3cnn(C4CCN(C)CC4)c3)nc3[nH]ccc23)c1 [Example 33] |
| 41 | 67 | > 10000 | – | – | C=CC(=O)N1CCc2c(Oc3nc(Nc4cnn(C)c4)nc4[nH]cc(C#N)c34)cccc21 [Example 37] |
| 8 | 90 | 5900 | – | – | C=CC(=O)N1CCc2c(Oc3nc(Nc4cnn(C)c4)nc4[nH]ccc34)cccc21 [Example 38] |

| IC50 (EGFR L858R+T790M) [nM] | IC50 (EGFR L858R) [nM] | IC50 [1] [nM] | IC50 (EGFR E746-A750 deletion) [nM] | IC50 (EGFR Del (PC9)) [nM] | SMILES |
| --- | --- | --- | --- | --- | --- |
| 15 | 190 | 2800 | 100 | – | C=CC(=O)Nc1cccc(Oc2nc(Nc3cnn(C4CCOC4)c3)nc3[nH]ccc23)c1 (centres unmarked) [Example 39] |
| 5340 | > 10000 | > 10000 | – | – | C=CC(=O)Nc1cccc(COc2nc(Nc3cnn(C)c3)nc3[nH]ccc23)c1 [Example 43] |
| 25 | 552 | 3560 | 90 | – | C=CS(=O)(=O)N1CCc2c(Oc3nc(Nc4cnn(C)c4)nc4[nH]ccc34)cccc21 [Example 44] |
| 84 | 700 | > 10000 | – | – | C=CC(=O)Nc1cccc(Oc2nc(Nc3cc(COC)nn3C)nc3[nH]ccc23)c1 [Example 45] |
| 80 | 495 | > 10000 | – | – | C=CC(=O)Nc1cccc(Oc2nc(Nc3cc(C4CC4)nn3C)nc3[nH]ccc23)c1 [Example 46] |
| 50 | 752 | > 10000 | 317 | – | C=CC(=O)Nc1cccc(Oc2nc(Nc3cc(CC)nn3C)nc3[nH]ccc23)c1 [Example 47] |
| 7 | 97 | 2020 | 22 | – | C=CC(=O)Nc1cc(F)cc(Oc2nc(Nc3ccn(C)n3)nc3[nH]ccc23)c1 [Example 49] |
| 35 | 431 | > 10000 | 137 | – | C=CC(=O)Nc1cccc(Oc2nc(Nc3ccn(CCN(C)C)n3)nc3[nH]ccc23)c1 [Example 51] |
| 355 | 1140 | > 10000 | 663 | – | C=CC(=O)Nc1cccc(Oc2nc(Nc3cnn(CCN(C)C)c3)nc3[nH]cnc23)c1 [Example 53] |
| 168 | 672 | > 10000 | 192 | – | C=CC(=O)Nc1cccc(Oc2nc(Nc3cnn(C)c3)nc3[nH]cnc23)c1 [Example 54] |
| 681 | > 10000 | > 10000 | – | – | C=CC(=O)Nc1cccc(Oc2nc(Nc3cnn(CC(=O)N(C)C)c3)nc3[nH]ccc23)c1 [Example 58] |
| 7 | 78 | > 7890 | 36 | – | C=CC(=O)Nc1cccc(Oc2nc(Nc3ccn(C)n3)nc3[nH]ccc23)c1F [Example 59] |
| 16 | 23 | 1860 | 12 | – | C=CC(=O)Nc1cccc(Oc2nc(Nc3cnn(C)c3)nc3[nH]cc(-c4cnn(C)c4)c23)c1 [Example 60] |
| 189 | 1700 | > 10000 | 581 | – | C=CC(=O)N(C)C1CC(Oc2nc(Nc3cnn(C)c3)nc3[nH]cc(C#N)c23)C1 (centres unmarked) [Example 61] |
| 9 | 120 | > 10000 | 309 | – | C=CC(=O)N1C[C@@H]2[C@H](C1)[C@H]2Oc1nc(Nc2cnn(C)c2)nc2[nH]cc(Cl)c12 [Example 66] |
| 8 | 49 | > 10000 | 172 | 141 | C=CC(=O)N1C[C@H](COc2nc(Nc3cnn(CC)n3)nc3[nH]cc(Cl)c23)[C@@H](OC)C1 [Example 67] |
| 19 | 287 | > 9370 | 117 | 465 | C=CC(=O)N[C@H]1C[C@@](C)(Oc2nc(Nc3cnn(C)c3)nc3[nH]cc(Cl)c23)C1 [Example 69] |
| – | – | > 10000 | – | 3220 | C=CC(=O)N1CC[C@@H](Nc2nc(Nc3cnn(C)c3)nc3[nH]cc(C#N)c23)C1 [Example 78] |
| 15 | 332 | > 10000 | 512 | – | C=CC(=O)N1C[C@H](COc2nc(Nc3cnn([C@@H]4CCOC4)c3)nc3[nH]cc(Cl)c23)[C@@H](OC)C1 [Example 103] |
| 25 | 123 | > 10000 | 110 | – | C=CC(=O)Nc1cccc(Oc2nc(Nc3cc(OCCN(C)C)nn3C)nc3[nH]ccc23)c1F [Example 104] |
| 8 | 15 | > 10000 | 9 | – | C=CC(=O)Nc1cccc(Oc2nc(Nc3cnn([C@H]4CCN(C)C4)c3)nc3[nH]ccc23)c1F [Example 106] |
| – | – | > 10000 | – | 838 | C=CC(=O)N1C[C@H](COc2nc(Nc3cnn(C)c3)nc3[nH]cc(-c4ccccn4)c23)[C@@H](OC)C1 [Example 117] |
